Experimental data: patent US10076519B2 (CYTOKINETICS, INC., priority 2010, dated 2018)

test system: rabbit skeletal myofibrils (fast skeletal myofibrils); assay: Activation of fast skeletal myofibrils (PUMA assay, PK/LDH-coupled ATPase at pCa25); assay type: biochemical; conditions: AC1.4 determined according to the procedure of Example 39; reported as class symbols
Summary of the method: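 ATPase activity of Triton-washed rabbit skeletal myofibrils, roughly 90% fast fibres, tracked by NADH loss at 340 nm through a PK/LDH-coupled ADP-regenerating system. Calcium set to 25% of maximal activity (pCa25), in PIPES 12 mM pH 6.8 with 2 mM MgCl2 and 1 mM DTT; AC1.4 reported.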

SMILES	Mean AC1.4
Nc1ccc(-c2ccc(NCC3(c4ncccc4F)CCC3)nn2)nc1 [[6-(5-amino(2-pyridyl))pyridazin-3-yl]{[(3-fluoro(2-pyridyl))cyclobutyl]methyl}amine]	A (A=<1 uM)
CC(C)(CNc1ccc(-c2cc(N)[nH]n2)nn1)c1ccc(F)cc1 [[6-(5-aminopyrazol-3-yl)pyridazin-3-yl][2-(4-fluorophenyl)-2-methylpropyl]amine]	B (B=1-10 uM)
CC(C)(CNc1ccc(-c2cccc(N)n2)nn1)c1ccc(F)cc1 [[6-(6-amino(2-pyridyl))pyridazin-3-yl][2-(4-fluorophenyl)-2-methylpropyl]amine]	B (B=1-10 uM)
CC(C)(CNc1ccc(-c2ccc(N)nc2)nn1)c1ccc(F)cc1 [[6-(6-amino(3-pyridyl))pyridazin-3-yl][2-(4-fluorophenyl)-2-methylpropyl]amine]	A (A=<1 uM)
Nc1ccc(-c2ccc(NCC3(c4ncccc4F)CCC3)nn2)cn1 [[6-(6-amino(3-pyridyl))pyridazin-3-yl]{[(3-fluoro(2-pyridyl))cyclobutyl]methyl}amine]	A (A=<1 uM)

same assay, conditions: median AC1.4 class, procedure of Example 39

SMILES	Mean AC1.4
Fc1cccnc1C1(CNc2ccc(-c3ncc(-c4nn[nH]n4)s3)nn2)CCC1 [[6-(5-(2H-1,2,3,4-tetraazol-5-yl)(1,3-thiazol-2-yl))pyridazin-3-yl]{[(3-fluoro(2-pyridyl))cyclobutyl]methyl}amine]	B (B=1-10 uM)
Nc1ccc2nc(-c3ccc(NCC4(c5ncccc5F)CCC4)nn3)sc2n1 [[6-(5-amino(1,3-thiazolino[5,4-b]pyridin-2-yl))pyridazin-3-yl]{[(3-fluoro(2-pyridyl))cyclobutyl]methyl}amine]	B (B=1-10 uM)
Fc1cccnc1C1(CNc2ccc(-c3nc4ccc(Cl)nc4s3)nn2)CCC1 [[6-(5-chloro(1,3-thiazolino[5,4-b]pyridin-2-yl))pyridazin-3-yl]{[(3-fluoro(2-pyridyl))cyclobutyl]methyl}amine]	C (C=10-20 uM)
Nc1ncc(-c2ccc(NCC3(c4ncccc4F)CCC3)nn2)cc1F [[6-(6-amino-5-fluoro(3-pyridyl))pyridazin-3-yl]{[(3-fluoro(2-pyridyl))cyclobutyl]methyl}amine]	A (A=<1 uM)
Fc1cc2[nH]ncc2cc1-c1ccc(NC2(c3ncccc3F)CCC2)nn1 [[6-(6-fluoro(1H-indazol-5-yl))pyridazin-3-yl][(3-fluoro(2-pyridyl))cyclobutyl]amine]	B (B=1-10 uM)
O=C(Nc1ccn[nH]1)c1ccc(NCC2(c3ncccc3F)CCC2)nn1 [[6-({[(3-fluoro(2-pyridyl))cyclobutyl]methyl}ami-no)pyridazin-3-yl]-N-pyrazol-5-ylcarboxamide]	B (B=1-10 uM)
Fc1cccnc1C1(Nc2ccc(-c3ccccc3)nn2)CCC1 [[(3-fluoro(2-pyridyl))cyclobutyl](6-phenylpyridazin-3-yl)amine]	B (B=1-10 uM)
C=Cc1ccc(NC2(c3ncccc3F)CCC2)nn1 [[(3-fluoro(2-pyridyl))cyclobutyl](6-vinylpyridazin-3-yl)amine]	D (D=>20 uM)
Fc1ccc(C2(Nc3ccc(-c4ccncc4)nn3)CCC2)cc1 [[(4-fluorophenyl)cyclobutyl](6-(4-pyridyl)pyridazin-3-yl)amine]	B (B=1-10 uM)
Fc1ccc(C2(Nc3ccc(-c4cn[nH]c4)nn3)CCC2)cc1 [[(4-fluorophenyl)cyclobutyl](6-pyrazol-4-ylpyridazin-3-yl)amine]	B (B=1-10 uM)
COc1ncccc1-c1ccc(NC2(c3ccc(F)cc3)CCC2)nn1 [[(4-fluorophenyl)cyclobutyl][6-(2-methoxy(3-pyridyl))pyridazin-3-yl]amine]	A (A=<1 uM)

same assay, conditions: median AC1.4 reported as class; procedure of Example 39

SMILES	Mean AC1.4
Nc1ccc(-c2ccc(NC[C@]3(c4ncccc4F)C[C@H](F)C3)nn2)cn1 [[6-(6-amino(3-pyridyl))pyridazin-3-yl]{[3-fluoro-1-(3-fluoro(2-pyridyl))cyclobutyl]methyl}amine]	A (A=<1 uM)
NC1CCc2nc(-c3ccc(NCC4(c5ncccc5F)CCC4)nn3)sc2C1 (stereo not drawn) [[6-(6-amino(4,5,6,7-tetrahydrobenzothiazol-2-yl))pyridazin-3-yl]{[(3-fluoro(2-pyridyl))cyclobutyl]methyl}amine]	D (D=>20 uM)
Cc1cc(-c2ccc(NC[C@]3(c4ncccc4F)C[C@H](F)C3)nn2)cnc1N [[6-(6-amino-5-methyl(3-pyridyl))pyridazin-3-yl]{[3-fluoro-1-(3-fluoro(2-pyridyl))cyclobutyl]methyl}amine]	B (B=1-10 uM)
CN(C)C(=O)c1ccc(NCC2(c3ncccc3F)CCC2)nn1 [[6-({[(3-fluoro(2-pyridyl))cyclobutyl]methyl}ami-no)pyridazin-3-yl]-N,N-dimethylcarboxamide]	D (D=>20 uM)
O=C(Nc1nncs1)c1ccc(NCC2(c3ncccc3F)CCC2)nn1 [[6-({[(3-fluoro(2-pyridyl))cyclobutyl]methyl}ami-no)pyridazin-3-yl]-N-(1,3,4-thiadiazol-2-yl)carboxamide]	B (B=1-10 uM)
O=C(Nc1ncco1)c1ccc(NCC2(c3ncccc3F)CCC2)nn1 [[6-({[(3-fluoro(2-pyridyl))cyclobutyl]methyl}ami-no)pyridazin-3-yl]-N-(1,3-oxazol-2-yl)carboxamide]	D (D=>20 uM)
O=C(Nc1nccs1)c1ccc(NCC2(c3ncccc3F)CCC2)nn1 [[6-({[(3-fluoro(2-pyridyl))cyclobutyl]methyl}ami-no)pyridazin-3-yl]-N-(1,3-thiazol-2-yl)carboxamide]	A (A=<1 uM)
O=C(NCc1nccs1)c1ccc(NCC2(c3ncccc3F)CCC2)nn1 [[6-({[(3-fluoro(2-pyridyl))cyclobutyl]methyl}ami-no)pyridazin-3-yl]-N-(1,3-thiazol-2-ylmethyl)carboxamide]	D (D=>20 uM)
Cn1ccc(NC(=O)c2ccc(NCC3(c4ncccc4F)CCC3)nn2)n1 [[6-({[(3-fluoro(2-pyridyl))cyclobutyl]methyl}ami-no)pyridazin-3-yl]-N-(1-methylpyrazol-3-yl)carboxamide]	C (C=10-20 uM)
O=C(NC1CCCNC1=O)c1ccc(NCC2(c3ncccc3F)CCC2)nn1 (stereo not drawn) [[6-({[(3-fluoro(2-pyridyl))cyclobutyl]methyl}ami-no)pyridazin-3-yl]-N-(2-oxo(3-piperidyl))carboxamide]	D (D=>20 uM)
O=C(NCc1ccccn1)c1ccc(NCC2(c3ncccc3F)CCC2)nn1 [[6-({[(3-fluoro(2-pyridyl))cyclobutyl]methyl}ami-no)pyridazin-3-yl]-N-(2-pyridylmethyl)carboxamide]	D (D=>20 uM)
O=C(NCc1cccnc1)c1ccc(NCC2(c3ncccc3F)CCC2)nn1 [[6-({[(3-fluoro(2-pyridyl))cyclobutyl]methyl}ami-no)pyridazin-3-yl]-N-(3-pyridylmethyl)carboxamide]	C (C=10-20 uM)
O=C(NCc1ccncc1)c1ccc(NCC2(c3ncccc3F)CCC2)nn1 [[6-({[(3-fluoro(2-pyridyl))cyclobutyl]methyl}ami-no)pyridazin-3-yl]-N-(4-pyridylmethyl)carboxamide]	D (D=>20 uM)
O=C(NCc1ccn[nH]1)c1ccc(NCC2(c3ncccc3F)CCC2)nn1 [[6-({[(3-fluoro(2-pyridyl))cyclobutyl]methyl}ami-no)pyridazin-3-yl]-N-(pyrazol-5-ylmethyl)carboxamide]	D (D=>20 uM)
Cn1ccc(CNC(=O)c2ccc(NCC3(c4ncccc4F)CCC3)nn2)n1 [[6-({[(3-fluoro(2-pyridyl))cyclobutyl]methyl}ami-no)pyridazin-3-yl]-N-[(1-methylpyrazol-3-yl)methyl]carboxamide]	D (D=>20 uM)
Cn1nccc1CNC(=O)c1ccc(NCC2(c3ncccc3F)CCC2)nn1 [[6-({[(3-fluoro(2-pyridyl))cyclobutyl]methyl}ami-no)pyridazin-3-yl]-N-[(1-methylpyrazol-5-yl)methyl]carboxamide]	D (D=>20 uM)
O=C1CCC(CNC(=O)c2ccc(NCC3(c4ncccc4F)CCC3)nn2)N1 (stereo not drawn) [[6-({[(3-fluoro(2-pyridyl))cyclobutyl]methyl}ami-no)pyridazin-3-yl]-N-[(5-oxopyrrolidin-2-yl)methyl]carboxamide]	D (D=>20 uM)
O=C(Nc1ncc[nH]1)c1ccc(NCC2(c3ncccc3F)CCC2)nn1 [[6-({[(3-fluoro(2-pyridyl))cyclobutyl]methyl}ami-no)pyridazin-3-yl]-N-imidazol-2-ylcarboxamide]	C (C=10-20 uM)
O=C(Nc1ccon1)c1ccc(NCC2(c3ncccc3F)CCC2)nn1 [[6-({[(3-fluoro(2-pyridyl))cyclobutyl]methyl}ami-no)pyridazin-3-yl]-N-isoxazol-3-ylcarboxamide]	B (B=1-10 uM)
CN(Cc1nccs1)C(=O)c1ccc(NCC2(c3ncccc3F)CCC2)nn1 [[6-({[(3-fluoro(2-pyridyl))cyclobutyl]methyl}ami-no)pyridazin-3-yl]-N-methyl-N-(1,3-thiazol-2-ylmethyl)carboxamide]	D (D=>20 uM)
CNC(=O)c1ccc(NCC2(c3ncccc3F)CCC2)nn1 [[6-({[(3-fluoro(2-pyridyl))cyclobutyl]methyl}ami-no)pyridazin-3-yl]-N-methylcarboxamide]	D (D=>20 uM)
OC[C@H]1CNCCN1Cc1cnc(-c2ccc(NCC3(c4ncccc4F)CCC3)nn2)s1 [[(2R)-1-({2-[6-({[(3-fluoro(2-pyridyl))cyclobutyl]methyl}ami-no)pyridazin-3-yl](1,3-thiazol-5-yl)}methyl)piperazin-2-yl]methan-1-ol]	C (C=10-20 uM)
OC[C@@H]1CNCCN1Cc1cnc(-c2ccc(NCC3(c4ncccc4F)CCC3)nn2)s1 [[(2S)-1-({2-[6-({[(3-fluoro(2-pyridyl))cyclobutyl]methyl}ami-no)pyridazin-3-yl](1,3-thiazol-5-yl)}methyl)piperazin-2-yl]methan-1-ol]	B (B=1-10 uM)
